# Laboratory results from ChEMBL document CHEMBL1201862, “PubChem BioAssay data set” (2004).
# Calls of active or inactive are those of the source.
# What was measured:
# [1] = Luminescence Cell-Based Dose Confirmation HTS to Identify Activators of 5'UTR Stem-Loop Driven Alpha-Synuclein mRNA Translation in H4 Neuroglioblastoma Cells. [Related pubchem assays: 1829 (Project Summary), 1814 (Primary HTS)]; assay type: functional
# H4 = test: Luminescence Cell-Based Dose Response HTS to Identify Activators of 5'UTR Stem-Loop Driven Prion Protein mRNA Translation in H4 Neuroglioblastoma Cells. [Related pubchem assays: 1829 (Project Summary), 1814 (Primary HTS)]; assay type: functional; conditions: Homo sapiens
# [2] = Luminescence Cell-Based Dose Response HTS to Identify Activators of Luciferase Translation or Activity in H4 […] Cells. [Related pubchem assays: 1829 (Project Summary), 1814 (Primary HTS)]; assay type: functional
# [3] = biological target: T1, Corticotropin-releasing factor receptor 2/Corticotropin-releasing factor-binding protein (Homo sapiens, UniProt P24387+Q13324); test: Dose Response confirmation of uHTS hits for small molecule antagonists of the CRF-binding protein and CRF-R2 receptor complex.; assay type: functional; conditions: read-out: IC50_Mean
# T1 sequence (Q13324 whole entry): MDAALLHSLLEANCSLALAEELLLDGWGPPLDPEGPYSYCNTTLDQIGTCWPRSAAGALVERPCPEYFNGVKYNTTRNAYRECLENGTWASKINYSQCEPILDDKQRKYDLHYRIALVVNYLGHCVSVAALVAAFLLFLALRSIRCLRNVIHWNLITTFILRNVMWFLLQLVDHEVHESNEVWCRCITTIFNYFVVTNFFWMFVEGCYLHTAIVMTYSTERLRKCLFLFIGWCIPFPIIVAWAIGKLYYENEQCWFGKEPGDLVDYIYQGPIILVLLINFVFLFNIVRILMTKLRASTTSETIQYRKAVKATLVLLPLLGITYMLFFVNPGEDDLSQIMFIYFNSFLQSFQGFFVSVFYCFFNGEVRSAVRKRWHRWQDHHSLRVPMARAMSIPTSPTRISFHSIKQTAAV
# T1 sequence (P24387 whole entry): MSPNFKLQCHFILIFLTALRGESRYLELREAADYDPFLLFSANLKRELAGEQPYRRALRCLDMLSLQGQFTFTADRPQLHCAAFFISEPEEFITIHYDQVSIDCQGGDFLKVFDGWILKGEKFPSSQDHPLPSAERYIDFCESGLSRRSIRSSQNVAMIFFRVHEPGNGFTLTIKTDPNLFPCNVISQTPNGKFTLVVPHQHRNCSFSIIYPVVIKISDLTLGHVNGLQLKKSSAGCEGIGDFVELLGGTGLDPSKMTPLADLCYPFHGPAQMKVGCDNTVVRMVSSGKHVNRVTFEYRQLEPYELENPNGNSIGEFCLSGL
# [4] = biological target: T1, Corticotropin-releasing factor receptor 2/Corticotropin-releasing factor-binding protein; test: activators of CRF receptor 2 with binding protein – uHTS hits, confirmation (AID 602473); assay type: functional; conditions: read-out: EC50_Mean
# [5] = HEp-2 cell cytotoxicity, dose response, cytotoxicity control for RSV inhibitor project, HTS (AID 2410); assay type: functional; conditions: human respiratory syncytial virus
# [6] = biological target: T2, RNA-binding protein pos-1 (Caenorhabditis elegans, UniProt G5EF15); test: inhibitors of POS-1/mex-3 RNA binding, dose response, biochemical, fluorescence polarization (AID 1964);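 further: purified POS-1 fused to maltose binding protein made in E. coli; potency of compounds blocking POS-1 binding to fluorescent RNA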
# T2 sequence (G5EF15 whole entry): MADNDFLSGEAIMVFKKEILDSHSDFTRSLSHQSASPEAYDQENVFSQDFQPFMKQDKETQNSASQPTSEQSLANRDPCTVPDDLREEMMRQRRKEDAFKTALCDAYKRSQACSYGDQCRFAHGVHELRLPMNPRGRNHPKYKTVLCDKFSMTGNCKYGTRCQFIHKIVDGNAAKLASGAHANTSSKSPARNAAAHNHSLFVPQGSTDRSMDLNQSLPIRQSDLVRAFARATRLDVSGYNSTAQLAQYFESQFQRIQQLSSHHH
# [7] = biological target: T3, Zinc finger protein mex-5 (Caenorhabditis elegans, UniProt Q9XUB2); test: MEX-5/TCR-2 RNA interaction inhibitors, dose response, biochemical, C. elegans, fluorescence polarization (AID 1960)
# T3 sequence (Q9XUB2 whole entry): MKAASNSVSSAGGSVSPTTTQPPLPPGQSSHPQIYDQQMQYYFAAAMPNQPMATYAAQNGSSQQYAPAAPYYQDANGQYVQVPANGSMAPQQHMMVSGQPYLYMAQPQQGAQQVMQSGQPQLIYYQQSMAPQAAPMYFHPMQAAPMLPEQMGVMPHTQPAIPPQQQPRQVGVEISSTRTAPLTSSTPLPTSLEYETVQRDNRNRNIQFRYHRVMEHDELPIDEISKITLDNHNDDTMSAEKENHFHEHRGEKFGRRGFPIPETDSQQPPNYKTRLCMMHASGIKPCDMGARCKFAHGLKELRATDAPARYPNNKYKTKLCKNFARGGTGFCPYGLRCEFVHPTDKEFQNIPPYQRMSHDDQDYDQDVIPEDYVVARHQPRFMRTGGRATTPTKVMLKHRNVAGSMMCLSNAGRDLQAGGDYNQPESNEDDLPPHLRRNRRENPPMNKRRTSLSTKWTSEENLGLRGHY
# [8] = growth suppression of PTEN-null colon cells, dose response, cell-based, HCT116 PTEN knockout (AID 1047); assay type: functional;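 further: HCT116 colon tumor cells with PTEN knocked out; cells exposed to compound for 60 hours before readout; potency for loss of cell viability measured by luminescence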
# Cytochrome P450 3A4 = Cytochrome P450 3A4 (Homo sapiens, UniProt P08684);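 further: CYP3A4 tested as one member of a cytochrome P450 panel screen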
# Cytochrome P450 2C19 = Cytochrome P450 2C19 (Homo sapiens, UniProt P33261); test: Cytochrome panel assay with activity outcomes. Panel member name: p450-cyp2c19 Compounds with AC50 equal or less than 10 uM are considered active; assay type: functional; conditions: read-out: AC50
# Chain of Cytochrome P450 2C19 (P33261 whole entry): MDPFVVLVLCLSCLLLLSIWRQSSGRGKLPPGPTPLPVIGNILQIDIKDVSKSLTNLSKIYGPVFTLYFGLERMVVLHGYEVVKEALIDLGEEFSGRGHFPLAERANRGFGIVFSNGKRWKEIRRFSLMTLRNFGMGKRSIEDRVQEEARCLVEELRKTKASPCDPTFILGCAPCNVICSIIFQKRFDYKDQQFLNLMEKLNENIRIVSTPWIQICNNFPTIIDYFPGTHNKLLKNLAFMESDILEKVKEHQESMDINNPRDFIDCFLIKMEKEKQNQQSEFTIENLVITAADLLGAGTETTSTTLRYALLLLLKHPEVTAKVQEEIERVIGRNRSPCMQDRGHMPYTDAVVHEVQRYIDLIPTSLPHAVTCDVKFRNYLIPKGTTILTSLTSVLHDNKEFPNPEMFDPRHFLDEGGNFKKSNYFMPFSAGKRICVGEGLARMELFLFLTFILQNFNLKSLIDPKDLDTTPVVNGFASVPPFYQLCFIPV
# Chain of Cytochrome P450 3A4 (P08684 whole entry): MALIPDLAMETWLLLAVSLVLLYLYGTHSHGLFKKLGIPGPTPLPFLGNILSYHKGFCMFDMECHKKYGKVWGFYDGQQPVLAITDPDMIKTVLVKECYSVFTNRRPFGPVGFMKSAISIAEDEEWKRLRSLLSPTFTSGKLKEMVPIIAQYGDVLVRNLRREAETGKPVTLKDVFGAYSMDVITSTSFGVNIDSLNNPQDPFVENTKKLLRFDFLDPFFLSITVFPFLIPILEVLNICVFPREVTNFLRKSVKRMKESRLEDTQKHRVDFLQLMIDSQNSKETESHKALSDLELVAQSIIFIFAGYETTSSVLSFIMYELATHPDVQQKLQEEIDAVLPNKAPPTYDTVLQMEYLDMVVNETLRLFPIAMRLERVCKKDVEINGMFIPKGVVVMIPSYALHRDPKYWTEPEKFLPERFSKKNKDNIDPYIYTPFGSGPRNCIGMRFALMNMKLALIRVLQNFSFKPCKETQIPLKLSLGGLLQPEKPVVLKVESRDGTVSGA
Compound,EC50 [1],EC50 (H4),EC50 [2],IC50 [3],EC50 [4],also measured
O=Nc1c(-c2ccccc2)cc2ccccn12,13.6 µM (active),27.4 µM (active),12.1 µM (active),–,–,–
CC(C)COc1ccc(CN=C(S)Nc2ccccc2)cc1Cl,–,–,–,> 47.1 µM (inactive),> 53 µM (inactive),–
Cc1cccc(-n2c(N)cc(=O)[nH]c2=S)c1,> 120 µM (not active),> 120 µM (not active),> 120 µM (not active),–,–,–
COc1cc(CNc2ccc(N3CCCC3)cc2)ccc1OCc1ccccc1,–,–,–,–,–,CC50 [5]: 13 µM (active)
O=C(O)C1CCN(C(=O)OCc2ccccc2)CC1,0.602 µM (active),6.56 µM (active),87.1 µM (active),–,–,–
Cc1cccn2c(=O)c(C=O)c(Nc3ccc(S(N)(=O)=O)cc3)nc12,14.8 µM (active),> 120 µM (not active),26.4 µM (active),–,–,–
Clc1ccc(-c2nnc(NCc3ccccc3)c3ccccc23)cc1,–,–,–,> 47.1 µM (inactive),> 53 µM (inactive),–
O=C(CSCC(=O)N1CCCCC1)Nc1nc(-c2ccc(Cl)s2)cs1,29.7 µM (active),10.9 µM (active),8.35 µM (active),–,–,–
NC(=O)NC1CCCc2c1[nH]c1ccc(Cl)cc21 (stereo not given),–,–,–,–,–,CC50 [5]: 18 µM (active)
Cn1c2ccccc2c2ncn(CCC3=CCCCC3)c(=O)c21,24 µM (active),29.8 µM (active),21.7 µM (active),–,–,–
O=C(C[n+]1cc(-c2ccc(F)cc2)n2c1CCC2)N1c2ccccc2Sc2ccccc21,7.4 µM (active),9.69 µM (active),1.06 µM (active),–,–,–
CC(C)(C)C(=O)N1CCN(c2nc3ccc(Cl)cc3s2)CC1,0.369 µM (active),15.2 µM (active),0.244 µM (active),–,–,–
CN(Cc1cccc(Cl)c1)C(=O)C1CCC(=O)N(C2CC2)C1 (stereo not given),–,–,–,> 47.1 µM (inactive),> 53 µM (inactive),–
CCN(CC)S(=O)(=O)c1ccc2c(c1)N(CC(=O)NCc1ccco1)C(=O)CO2,–,–,–,> 47.1 µM (inactive),> 53 µM (inactive),–
COc1ccc(C(=O)Nc2ccc3nc4n(c(=O)c3c2)CCCCC4)cc1OC,–,–,–,> 47.1 µM (inactive),> 53 µM (inactive),–
O=C(Nc1ccc(Cl)cn1)c1cccc(S(=O)(=O)N2CCCC2)c1,–,–,–,> 47.1 µM (inactive),> 53 µM (inactive),–
Cc1ccc(-n2nnnc2SCC(=O)Nc2sc(C)c(C)c2C#N)cc1C,15.9 µM (active),> 120 µM (not active),15.6 µM (active),–,–,–
Cc1ccc(C(=O)NCc2cccnc2)o1,–,–,–,> 47.1 µM (inactive),> 53 µM (inactive),–
CCN(CC(=O)Nc1c(F)cccc1F)C(=O)c1ccc(S(=O)(=O)N2CCC(C)CC2)cc1,–,–,–,> 47.1 µM (inactive),> 53 µM (inactive),–
CC1(C)CC(=O)C2=C(C1)OC(N)=C(C#N)C2c1cc2c(cc1[N+](=O)[O-])OCO2 (stereo not given),–,–,–,–,5.48 µM (active),EC50 [6]: 18 µM (active); EC50 [7]: 14.3 µM (active)
O=C(CCN1CCCCC1)c1ccc2c(c1)OCO2,–,–,–,> 47.1 µM (inactive),> 53 µM (inactive),–
O=S(=O)(NC(=S)NC1CCCCC1)c1ccc(Br)cc1,–,–,–,> 47.1 µM (inactive),> 53 µM (inactive),–
CN(C)c1nn(C(=O)Nc2cccc(C(F)(F)F)c2)cc1-c1ccccc1,–,–,–,–,–,EC50 [8]: 42.1 µM (active)
Cc1ccc(N(C(=O)Cn2nnc(-c3ccccc3F)n2)C(C(=O)NC2CCCC2)c2ccncc2)cc1 (stereo not given),–,–,–,> 47.1 µM (inactive),> 53 µM (inactive),–
Cc1cc(NC(=O)C(C)C)ncc1NC(=O)CCc1ccccc1,–,–,–,–,> 53 µM (inactive),–
O=C1NC(=O)N(CCNc2ncc(C(F)(F)F)cc2Cl)C(=O)C1/C=N/OCc1c(F)cccc1Cl (stereo not given),–,–,–,> 47.1 µM (inactive),> 53 µM (inactive),AC50 (Cytochrome P450 3A4): 3.16 µM (inconclusive); AC50 (Cytochrome P450 2C19): 8.91 µM (inconclusive)
